Literature values, collected in EP3021668B1, “EMULSIFIABLE CONCENTRATE COMPRISING PESTICIDE, ALKYL LACTATE, FATTY AMIDE AND ACETOPHENONE” (BASF SE, priority 2013, dated 2015).

Assays:
[1] = pure solvents; according to the Annex III of European Union Directive 67/548/EEC
[2] = at 20 °C

Row | Compound | eye toxicity classification [1] | soluble in water [2]
1 | CCCC[C@H](CC)COC(=O)C(C)O (stereo partly drawn) [(S)-2-ethylhexyl lactate] | R36 "Irritating to eyes" | –
2 | CC(=O)c1ccccc1 [acetophenone] | R36 "Irritating to eyes" | –
3 | Cn1cc(C(=O)Nc2ccccc2-c2cc(F)c(F)c(F)c2)c(C(F)F)n1 [fluxapyroxad] | – | about 4 mg/l
4 | COC(=O)N(OC)c1ccccc1COc1ccn(-c2ccc(Cl)cc2)n1 [pyraclostrobin] | – | about 2 mg/l
